Data taken from ChEMBL document CHEMBL6153163, “Novel 6-Substituted-3-Phenylisoindolin-1-ones as Cbl-B Inhibitors for Treating Cancer” (ACS Med Chem Lett, 2025).
pIC50: −log10 of the molar value.

Biological target: E3 ubiquitin-protein ligase CBL-B (Homo sapiens, UniProt Q13191)
Experiment: Inhibition of biotin-tagged Cbl-B (unknown origin) pre-incubated with compound for 60 min followed by Lck addition and measured after 90 mins in presence of ATP by TR-FRET based assay

Sequence of E3 ubiquitin-protein ligase CBL-B (Q13191 whole entry): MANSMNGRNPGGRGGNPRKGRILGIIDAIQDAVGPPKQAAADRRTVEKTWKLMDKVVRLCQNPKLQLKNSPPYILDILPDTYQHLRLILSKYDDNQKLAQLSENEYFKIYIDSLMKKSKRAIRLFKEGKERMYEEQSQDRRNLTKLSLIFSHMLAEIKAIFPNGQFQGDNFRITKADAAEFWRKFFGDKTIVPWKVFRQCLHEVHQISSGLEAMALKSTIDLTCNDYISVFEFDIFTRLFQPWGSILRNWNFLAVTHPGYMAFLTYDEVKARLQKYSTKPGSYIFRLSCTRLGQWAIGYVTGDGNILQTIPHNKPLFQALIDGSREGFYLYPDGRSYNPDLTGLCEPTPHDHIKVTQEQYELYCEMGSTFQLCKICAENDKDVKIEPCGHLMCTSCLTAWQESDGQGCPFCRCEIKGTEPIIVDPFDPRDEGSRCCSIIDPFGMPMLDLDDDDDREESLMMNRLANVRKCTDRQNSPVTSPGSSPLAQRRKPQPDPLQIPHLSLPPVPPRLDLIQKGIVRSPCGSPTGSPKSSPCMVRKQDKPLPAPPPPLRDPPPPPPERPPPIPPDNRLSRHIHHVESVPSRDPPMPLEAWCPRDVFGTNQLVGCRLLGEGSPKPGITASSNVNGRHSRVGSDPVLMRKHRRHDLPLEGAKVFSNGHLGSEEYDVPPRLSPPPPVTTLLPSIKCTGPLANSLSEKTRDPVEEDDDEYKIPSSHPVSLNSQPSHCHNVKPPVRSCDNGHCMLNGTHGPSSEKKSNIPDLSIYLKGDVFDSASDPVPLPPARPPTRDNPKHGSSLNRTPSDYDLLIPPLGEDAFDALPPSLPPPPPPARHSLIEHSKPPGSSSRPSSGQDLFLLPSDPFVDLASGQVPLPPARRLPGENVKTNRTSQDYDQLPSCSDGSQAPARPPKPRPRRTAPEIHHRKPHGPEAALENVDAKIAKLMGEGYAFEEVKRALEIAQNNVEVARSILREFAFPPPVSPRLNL

Row | Compound | pIC50
1 | CC(C)CNCc1cc(Cl)c2c(c1)C(=O)N(c1cccc([C@H](c3nncn3C)[C@H]3C[C@@H](F)C3)c1)C2 | 8.37
2 | C[C@@H](NCc1cc2c(c(C(F)F)c1)CN(c1cccc([C@H](c3nncn3C)C3CC(F)C3)c1)C2=O)C1CCC1 (stereo partly specified) | 8.38
3 | Cn1cnnc1[C@]1(c2cccc(N3Cc4c(Cl)cc(CNCC5CCC5)cc4C3=O)c2)C[C@@H](Cl)C1 | 8.44
4 | Cn1cnnc1[C@]1(c2cccc(N3Cc4c(Cl)cc(CNCC5CCC5)cc4C3=O)c2)C[C@H](Cl)C1 | 8.39
5 | CC(C)CNCc1cc(Cl)c2c(c1)C(=O)N(c1cccc([C@H](c3nncn3C)[C@H]3C[C@@H](CC#N)C3)c1)C2 | 8.38
6 | C[C@@H](NCc1cc2c(c(C(F)F)c1)CN(c1cccc([C@]3(c4nncn4C)C[C@H](Cl)C3)c1)C2=O)C1CCC1 | 8.40
